Assay results as given in patent publication EP0639978B1, “PHARMACEUTICAL COMBINATION HAVING ANTINEOPLASTIC ACTIVITY” (priority 1991, dated 1992).
Counter-ions that a name gives are not always drawn.

What was measured:
P388 leukemia = experiment: Therapeutic activity in P388 leukemia treatment (survival); assay type: in vivo, BDFl female mice; conditions: for ILS (%): survival increase vs untreated controls
Protocol: The following tables and the enclosed figures refer to experiments carried out on BDFl mice inoculated with P388 leukemic cells and wherein the effect of DDP-Pd.HCl combination is compared, in terms of toxicity and therapeutic efficacy, with the one of the different components. From Pd-HCl toxicity results, which are reported in Table 1, the 50 mg/kg of Pd.HCl dose was selected for the investigations suited for the evaluation of DDP-Pd.HCl combination toxicity and therapeutic efficacy.

[1] = system: kidneys of P388 leukemic BDFl mice; experiment: Histological evaluation of renal damage; assay type: in vivo
Protocol: Stromal connective, wherein rare and scattered fibroblasts were detected, appeared remarkably thickened with resulting intertubular space increase. Renal corpuscle morphology appeared in a good preservation state in the components thereof and a slight increase of the glomerular chamber was recognized in few corpuscles only.
Immediately after withdrawal, renal parenchyma was fixed with 2.5% glutaraldehyde in 0.1 M Na cacodylate buffer (pH = 7.4) for 120 min.
After washing in the same buffer, the samples were dehydrated with ethanol and embedded in Epon 812. LKB Ultratom III microtome 2 µm sections were stained with aqueous 1% toluidine blue.

[2] = DDP 8 mg/kg i.p. days 1 and 5, vehicle H2O
[3] = DDP 16 mg/kg i.p. day 1, vehicle 0,9% NaCl
[4] = DDP 16 mg/kg i.p. day 1, vehicle H2O
[5] = Pd.HCl 50 mg/kg in H2O i.v., no DDP

Row | Structure (SMILES) | Survivors on day 60 (alive/treated) (P388 leukemia; [2]) | MST (P388 leukemia; DDP 8 mg/kg i.p. days 1 and 5, vehicle H2O, median survival time, untreated controls 12 days) | ILS (%) (P388 leukemia; [2]) | Survivors on day 60 (alive/treated) (P388 leukemia; [3]) | MST (P388 leukemia; DDP 16 mg/kg i.p. day 1, vehicle 0,9% NaCl, median survival time, untreated controls 12 days) | ILS (%) (P388 leukemia; [3]) | Survivors on day 60 (alive/treated) (P388 leukemia; [4]) | MST (P388 leukemia; DDP 16 mg/kg i.p. day 1, vehicle H2O, median survival time, untreated controls 12 days) | ILS (%) (P388 leukemia; [4]) | Hystological evaluation of renal damage ([1]; 8 mg/kg of DDP alone at days 1, 5 and 9, mice killed the 10th day, cortical zone) | MST (P388 leukemia; [5]) | Survivors on day 60 (alive/treated) (P388 leukemia; [5]) | ILS (%) (P388 leukemia; [5]) | antitumor activity (P388 leukemia; procainamide by itself) | Hystological evaluation of renal damage ([1]; mouse, in vivo, 50 mg/kg)
1 | N.N.[Cl][Pt][Cl] [DDP, Cisplatin] | 0/8 | 7 days | -42% | 2/10 | 22 days | 83% | 0/10 | 5 days | -58% | renal parenchyma alterations |  |  |  |  | 
2 | CCN(CC)CCNC(=O)c1ccc(N)cc1 [Pd.HCl, procainamide hydrochloride] |  |  |  |  |  |  |  |  |  |  | 13 days | 0/8 | 8,3% | no antitumor activity | a picture similar to the one observed with DDP only
